22 compounds from patent US20090099243A1, “ORGANIC COMPOUNDS” (priority 2007, published 2009) can be followed below.

The target of the first assay is T1, recombinant human NPY Y2 receptors (Homo sapiens, UniProt P49146).
T1 construct: expressed in transfected cells; host or cells: CHO-C4 cells (membrane preparation)
T1 sequence (P49146 1-381): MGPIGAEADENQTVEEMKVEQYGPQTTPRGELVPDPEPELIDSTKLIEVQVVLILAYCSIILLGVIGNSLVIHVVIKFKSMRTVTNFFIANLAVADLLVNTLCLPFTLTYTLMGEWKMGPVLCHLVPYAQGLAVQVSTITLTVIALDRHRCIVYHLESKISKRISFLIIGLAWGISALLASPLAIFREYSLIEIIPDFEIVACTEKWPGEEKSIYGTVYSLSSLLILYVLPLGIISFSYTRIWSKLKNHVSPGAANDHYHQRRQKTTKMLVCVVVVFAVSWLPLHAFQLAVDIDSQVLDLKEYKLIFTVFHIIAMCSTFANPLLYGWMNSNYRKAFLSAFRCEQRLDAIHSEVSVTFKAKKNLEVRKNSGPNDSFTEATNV
In words: Scintillation proximity [35S]GTPγS binding assay (inhibition of 0.5 nM NPY-stimulated [35S]GTPγS binding). To be noted: 10 μM compound, CHO-C4 membranes. The format is biochemical. The protocol: Preparation of Membranes: CHO—C4 cells expressing recombinant human NPY Y2 receptors were used to prepare membranes for the GTPγS assay. Cells were grown to 80-95% confluency on 15-cm (225 cm^2) tissue culture plates. After aspiration of the culture medium, cells were washed twice with 18 ml ice-cold phosphate-buffered saline (PBS), scraped off and suspended in 3 ml ice-cold PBS in pre-cooled centrifuge tubes. The dishes were rinsed with 2 ml ice-cold PBS per dish and the washings were combined with the PBS cell suspension from above. Cells pooled from 5-7 dishes were centrifuged for 5 min at 10,000 rpm (12,000 g) in a Sorvall RC5B centrifuge using an SS34 rotor at 4° C. The cell pellet was resuspended in 5 ml ice-cold buffer (20 mM HEPES, 10 mM EDTA; pH 7.4) by vortexing (2-5 sec), homogenized using a Polytron (step 4 for 20-30 sec), and ice-cold buffer added to 25 ml. The suspension was centrifuged again for 20 min at 18,000 rpm (39,000 g) at 4° C. and the pellet resuspended in 5 ml ice-cold buffer (20 mM HEPES, 0.1 mM EDTA; pH 7.4) by vortexing (2-5 sec), homogenized with a Polytron (step 4 for 10 sec), and ice-cold buffer added to 25 ml. The suspension was centrifuged a third time for 20 min at 18,000 rpm (39,000 g) at 4° C. The pellet was resuspend in 1 ml ice-cold buffer (20 mM Hepes, 0.1 mM EDTA; pH 7.4) by vortexing (5-8 sec). Two to five resuspended pellets were combined and homogenized using a Polytron (step 4 for 15-25 sec). A small aliquot (20-50 μl) was removed for protein determination by the Coomassie Plus Protein Assay Reagent (Pierce) using BSA as standard. The membrane suspension was aliquoted in pre-cooled (on dry ice) Eppendorf tubes (0.25-1 ml/tube affording approximately 0.5-2 mg of membrane protein/tube). The pellets were frozen and stored at −80° C.
Scintillation proximity [^35S]GTPγS binding assay: Frozen membranes from CHO—C4 cells expressing recombinant human NPY Y2 receptors (2 mg for four 96-well plates) were thawed on ice. Thawed membranes were pipetted into 10 ml of assay buffer (20 mM. HEPES, 10 mM MgCl2, 100 mM NaCl, pH 7.4) and homogenized briefly using a Polytron. The final assay mixture was prepared in 96-well microtiter plates (Isoplate Wallac, Perkin Elmer). The composition of the assay mixtures in a final volume of 250 μl per well was as follows: 20 mM HEPES, 10 mM MgCl2, 100 mM NaCl, pH 7.4, 30 μM GDP, 1 mg/ml BSA (added fresh), 5 μg membrane protein, 1.5 mg Wheatgerm agglutinin SPA beads (Amersham), 0.45 nM [^35S]GTPγS (Amersham, SJ1308, 1000 Ci/mmol, stabilized solution), and the test compounds (agonists and/or antagonists) at the appropriate concentrations. The samples were incubated at room temperature for 90 min by shaking, after which the SPA beads were sedimented by centrifugation in an Eppendorf 5804 centrifuge at 2700 rpm for 10 min at room temperature. After 60 min the plates were counted in a TopCount (Canberra). Basal [^35S]GTPγS binding was measured in the absence of agonist (NPY). Non-specific binding was measured in the presence of excess (10 μM) unlabelled GTPγS (Sigma). Nonspecific binding never exceeded 10% of basal binding and was thus not subtracted from the experimental data. Antagonists were tested for the inhibition of 0.5 nM NPY-stimulated [^35S]GTPγS binding. Antagonist inhibition curves were analyzed by non-linear regression using GraphPad Prism software (Version 4.0, GraphPad Software Inc., CA, USA).
Antagonistic activity of compounds of the present invention was examined by the Scintillation proximity [35S]GTPγS binding assay as described above (inhibition of 0.5 nM NPY-stimulated [^35S]GTPγS binding). The table below represents percentages of inhibition at a concentration of 10 μM.
A general note: In a scintillation proximity assay essentially only radioactivity close to the scintillant gives light.
`COc1ccc(CC(=O)Nc2ccc(C(=O)CN3C(=O)NC(c4ccccc4)(c4ccc(C)cc4)C3=O)cc2)c(OC)c1` (racemic) [Example 41, (±)-2-2,4-Dimethoxy-phenyl)-N-{4-[2-(2,5-dioxo-4-phenyl-4-p-tolyl-imidazolidin-1-yl)-acetyl]-phenyl}-acetamide]: the “[%] inhibiton at 10 μM” value is reported as 60%.
`CCCC1(c2ccccc2)NC(=O)N(CC(=O)c2ccc(NC(=O)C(CC)CC)cc2)C1=O` (single isomer, unassigned; (+)) [Example 32]: the “[%] inhibiton at 10 μM” value amounted to 90%.
Take `CCCC1(c2ccccc2)NC(=O)N(CC(=O)c2ccc(NC(=O)Cc3c(C)noc3C)cc2)C1=O` (single isomer, unassigned; (-)) [Example 29]: the “[%] inhibiton at 10 μM” value came out at 99%.
Turning to `CCCC1(c2ccccc2)NC(=O)N(CC(=O)c2ccc(NC(=O)C(CC)CC)cc2)C1=O` (single isomer, unassigned; (-)) [Example 31], the “[%] inhibiton at 10 μM” value was 97%.
With `Cc1noc(C)c1CC(=O)Nc1ccc(C(=O)CN2C(=O)NC(c3ccccc3)(c3ccccc3)C2=O)cc1` [Example 27, 2-(3,6-Dimethyl-isoxazol-4-yl)-N-{4-[2-(2,5-dioxo-4,4-diphenyl-imidazolidin-1-yl)-acetyl]-phenyl}-acetamide], the “[%] inhibiton at 10 μM” value is reported as 96%.
On to `Cc1noc(C)c1NC(=O)Nc1ccc(C(=O)CN2C(=O)NC(c3ccccc3)(c3ccccc3)C2=O)c(F)c1` [Example 28, 1-(3,5-Dimethyl-isoxazolyl-4-yl)-3-{4-[2-(2,5-dioxo-4,4-diphenyl-imidazolidin-1-yl)-acetyl]-3-fluoro-phenyl}-urea], for which the “[%] inhibiton at 10 μM” value was 98%.

The same assay, now with this note: 10 μM compound, CHO-C4 membranes, read-out: [%] inhibiton at 10 μM.
For the compound `CCCC1(c2ccccc2)NC(=O)N(CC(=O)c2ccc(NC(=O)Nc3c(C)noc3C)cc2F)C1=O` (racemic) [Example 1, (±)-1-(3,5-Dimethyl-isoxazol-4-yl)-3-{4-[2-(2,5-dioxo-4-phenyl-4-propyl-imidazolidin-1-yl)-acetyl]-3-fluoro-phenyl}-urea], the inhibition at 10 µM was found to be 105%.
Regarding `CCC1(c2ccccc2)NC(=O)N(CC(=O)c2ccc(NC(=O)Nc3c(C)noc3C)cc2)C1=O` (racemic) [Example 2, (±)-1-(3,5-Dimethyl-isoxazol-4-yl)-3-{4-[2-(4-ethyl-2,5-dioxo-4-phenyl-imidazolidin-1-yl)-acetyl]-phenyl}-urea], the inhibition at 10 µM is 98%.
Turning to `CCCC1(c2ccccc2)NC(=O)N(CC(=O)c2ccc(NC(=O)CC(C)C)cc2F)C1=O` (racemic) [Example 5, (±)-N-{4-[2-(2,5-Dioxo-4-phenyl-4-propyl-imidazolidin-1-yl)-acetyl]-3-fluoro-phenyl}-3-methyl-butyramide], the inhibition at 10 µM came to 63%.
In the case of `CCC1(c2ccccc2)NC(=O)N(CC(=O)c2ccc(NC(=O)CC(C)C)cc2F)C1=O` (racemic) [Example 13, (±)-N-{4-[2-(4-Ethyl-2,5-dioxo-4-phenyl-imidazolidin-1-yl)-acetyl]-3-fluoro-phenyl}-3-methyl-butyramide], the inhibition at 10 µM stood at 78%.
With `Cc1ccc(C2(c3ccccc3)NC(=O)N(CC(O)c3ccc(NC(=O)CC(C)C)cc3)C2=O)cc1` (racemic) [Example 14, (±)-N-{4-[2-(2,5-Dioxo-4-phenyl-4-p-tolyl-imidazolidin-1-yl)-1-hydroxy-ethyl]-phenyl}-3-methyl-butyramide], the inhibition at 10 µM turned out to be 58%.
Take `CCC1(c2ccccc2)NC(=O)N(Cc2ccc(NC(=O)Nc3c(C)noc3C)cc2)C1=O` (racemic) [Example 19, (±)-1-(3,5-Dimethyl-isoxazol-4-yl)-3-[4-(4-ethyl-2,5-dioxo-4-phenyl-imidazolidin-1-ylmethyl)-phenyl]-urea]: the inhibition at 10 µM was 32%.
With `CCCC1(c2ccccc2)NC(=O)N(CC(=O)c2ccc(NC(=O)Cc3c(C)noc3C)cc2)C1=O` (racemic) [Example 21, (±)-2-(3,5-Dimethyl-isoxazol-4-yl)-N-{4-[2-(2,5-dioxo-4-phenyl-4-propyl-imidazolidin-1-yl)-acetyl]-phenyl}-acetamide], the inhibition at 10 µM is 97%.
For the compound `CCCC1(c2ccccc2)NC(=O)N(CC(=O)c2ccc(NC(=O)C(CC)CC)cc2)C1=O` (racemic) [Example 24, (±)-N-{4-[2-(2,5-Dioxo-4-phenyl-4-propyl-imidazolidin-1-yl)-acetyl]-phenyl}-2-ethyl-butyramide], the inhibition at 10 µM was 96%.
The same measure, in the same setting: the same measure for `Cc1ccc(C2(c3ccccc3)NC(=O)N(CC(=O)c3ccc(NC(=O)Nc4ccccc4F)cc3)C2=O)cc1` (racemic) [Example 39, (±)-1-{4-[2-(2,5-Dioxo-4-phenyl-4-p-tolyl-imidazolidin-1-yl)-acetyl]-phenyl}-3-(2-fluoro-phenyl)-urea]: 44%; for `COc1ccccc1CC(=O)Nc1ccc(C(=O)CN2C(=O)NC(c3ccccc3)(c3ccc(C)cc3)C2=O)cc1` (racemic) [Example 40, (±)-N-{4-[2-(2,5-Dioxo-4-phenyl-4-p-tolyl-imidazolidin-1-yl)-acetyl]-phenyl}-2-(2-methoxy-phenyl)-acetamide]: 70%; for `Cc1ccc(C2(c3ccccc3)NC(=O)N(CC(=O)c3ccc(NC(=O)Cc4c(C)noc4C)cc3)C2=O)cc1` (racemic) [Example 42, (±)-2-(3,5-Dimethyl-isoxazol-4-yl)-N-{4-[2-(2,5-dioxo-4-phenyl-4-p-tolyl-imidazolidin-1-yl)-acetyl]-phenyl}-acetamide]: 99%.
As to `CCCC1(c2ccccc2)NC(=O)N(CC(=O)c2ccc(NC(=O)Nc3ccccc3F)cc2)C1=O` (racemic) [Example 44, (±)-1-{4-[2-(2,5-Dioxo-4-phenyl-4-propyl-imidazolidin-1-yl)-acetyl]-phenyl}-3-(2-fluoro-phenyl)-urea], the inhibition at 10 µM was found to be 56%.
Turning to `CC(C)CC(=O)Nc1ccc(C(=O)CN2C(=O)NC(c3ccccc3)(c3ccccc3)C2=O)c(F)c1` [Example 9, N-{4-[2-(2,5-Dioxo-4,4-diphenyl-imidazolidin-1-yl)-acetyl]-3-fluoro-phenyl}-3-methyl-butyramide], the inhibition at 10 µM was determined as 83%.
Turning to `CCC(=O)Nc1ccc(C(=O)CN2C(=O)NC(c3ccc(F)cc3)(c3ccc(F)cc3)C2=O)cc1` [Example 12, N-(4-{2-[4,4-Bis-(4-fluoro-phenyl)-2,5-dioxo-imidazolidin-1-yl]-acetyl}-phenyl)-propionamide], the inhibition at 10 µM came to 42%.
`CCCC1(c2ccccc2)NC(=O)N(CC(=O)c2ccc(NC(=O)C3CCOC3)cc2)C1=O` (stereo not shown) [Example 22, Tetrahydro-furan-3-carboxylic acid {4-[2-(2,5-dioxo-4-phenyl-4-propyl-imidazolidin-1-yl)-acetyl]-phenyl}-amide]: the inhibition at 10 µM stood at 83%.
On to `CCCC1(c2ccccc2)NC(=O)N(CC(=O)c2ccc(NC(=O)C3CCCN3)cc2)C1=O` (stereo not shown) [Example 23, Pyrrolidine-2-carboxylic acid {4-[2-(2,5-dioxo-4-phenyl-4-propyl-imidazolidin-1-yl)-acetyl]-phenyl}-amide], for which the inhibition at 10 µM was found to be 36%.
